Assay results from US20130102595A1 (Curis, Inc., priority 2011, published 2013).

Columns and labels:
[1] = tested on: HDACs (HeLa cell nuclear extracts); assay: HDAC enzymatic activity, Biomol Color de Lys system; format: biochemical; settings: 1 hour, 25° C.
Method in brief: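 IC50 from sigmoidal fit of developer-terminated fluorescence (ex 350-380/em 440-460 nm). Reaction: 1 h at room temperature (25 °C), HeLa nuclear extract as HDAC source, artificial substrate, buffer of 50 mM Tris/Cl pH 8.0 with 137 mM NaCl, 2.7 mM KCl and 1 mM MgCl2.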

PI3Kα (p110α/p85α) = target: T1, PI3Kα (p110α/p85α) (Homo sapiens, UniProt P42336); assay: PI3Kα ADP-Glo assay; format: biochemical; settings: 20 μM PIP2, 10 μM ATP, 30 minutes
T1 construct: GST (N); made in house; host or cells: Baculovirus-infected Sf9 cells
Method in brief: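 Luminescent ADP-Glo detection, after depletion of residual ATP, quantified ADP made by PI3Kα phosphorylating 20 μM PIP2 at 10 μM ATP. The kinase step ran 30 min at room temperature in HEPES pH 7.4 with MgCl2, DTT and orthovanadate, using baculovirus/Sf9-expressed full-length p110α/p85α complex.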

T1 sequence (P42336 whole entry): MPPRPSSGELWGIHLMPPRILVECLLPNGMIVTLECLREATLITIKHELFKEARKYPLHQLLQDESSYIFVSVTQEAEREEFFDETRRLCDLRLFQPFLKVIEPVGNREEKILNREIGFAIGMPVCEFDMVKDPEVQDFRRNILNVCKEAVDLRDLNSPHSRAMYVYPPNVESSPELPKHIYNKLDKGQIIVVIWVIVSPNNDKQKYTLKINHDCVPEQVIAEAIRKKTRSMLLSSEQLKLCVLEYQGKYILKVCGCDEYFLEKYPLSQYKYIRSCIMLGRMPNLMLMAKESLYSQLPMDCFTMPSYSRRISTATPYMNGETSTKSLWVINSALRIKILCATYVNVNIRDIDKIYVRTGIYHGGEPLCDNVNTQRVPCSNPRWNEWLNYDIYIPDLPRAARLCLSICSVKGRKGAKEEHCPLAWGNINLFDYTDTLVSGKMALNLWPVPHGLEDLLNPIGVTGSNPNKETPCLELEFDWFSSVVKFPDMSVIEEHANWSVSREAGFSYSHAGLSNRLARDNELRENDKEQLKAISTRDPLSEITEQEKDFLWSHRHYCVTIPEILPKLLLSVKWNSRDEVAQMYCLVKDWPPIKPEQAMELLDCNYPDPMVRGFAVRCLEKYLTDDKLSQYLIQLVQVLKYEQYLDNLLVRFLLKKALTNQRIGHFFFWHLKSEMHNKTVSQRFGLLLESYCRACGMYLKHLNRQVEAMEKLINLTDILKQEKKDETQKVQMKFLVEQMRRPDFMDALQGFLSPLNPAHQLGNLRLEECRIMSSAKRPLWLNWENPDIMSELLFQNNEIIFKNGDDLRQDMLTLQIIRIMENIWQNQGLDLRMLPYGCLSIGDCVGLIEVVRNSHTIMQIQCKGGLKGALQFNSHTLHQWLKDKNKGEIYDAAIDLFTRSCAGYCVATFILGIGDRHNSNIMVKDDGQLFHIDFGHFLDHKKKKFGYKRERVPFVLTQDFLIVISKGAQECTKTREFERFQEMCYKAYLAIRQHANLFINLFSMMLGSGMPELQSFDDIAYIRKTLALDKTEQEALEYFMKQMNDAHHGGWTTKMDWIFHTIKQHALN
T1 sequence (P27986 whole entry partner): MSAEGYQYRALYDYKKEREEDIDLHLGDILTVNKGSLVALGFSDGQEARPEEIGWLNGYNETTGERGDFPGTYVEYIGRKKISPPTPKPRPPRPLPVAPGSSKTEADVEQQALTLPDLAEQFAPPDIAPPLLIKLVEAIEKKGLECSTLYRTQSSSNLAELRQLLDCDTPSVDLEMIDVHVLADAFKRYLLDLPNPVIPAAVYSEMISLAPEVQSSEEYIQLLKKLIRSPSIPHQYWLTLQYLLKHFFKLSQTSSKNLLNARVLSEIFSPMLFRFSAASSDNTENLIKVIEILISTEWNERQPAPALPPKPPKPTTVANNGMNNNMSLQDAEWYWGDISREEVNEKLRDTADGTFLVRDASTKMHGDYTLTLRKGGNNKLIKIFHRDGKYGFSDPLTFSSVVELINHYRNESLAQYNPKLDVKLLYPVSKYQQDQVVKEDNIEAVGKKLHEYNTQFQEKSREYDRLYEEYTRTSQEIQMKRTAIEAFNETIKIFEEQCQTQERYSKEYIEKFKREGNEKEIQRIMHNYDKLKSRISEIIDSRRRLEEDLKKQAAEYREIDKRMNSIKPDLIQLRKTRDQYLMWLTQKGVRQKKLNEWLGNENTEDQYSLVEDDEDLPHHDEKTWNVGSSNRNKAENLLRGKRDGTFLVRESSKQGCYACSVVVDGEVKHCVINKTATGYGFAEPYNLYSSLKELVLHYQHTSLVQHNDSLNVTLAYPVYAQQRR

## CN(Cc1cc2nc(-c3ccc(N)c(N)c3)nc(N3CCOCC3)c2s1)c1ncc(C(=O)NO)cn1 [Compound 156, 2-(((2-(3,4-diaminophenyl)-4-morpholinothieno[3,2-d]pyrimidin-6-yl)methyl)(methyl)amino)-N-hydroxypyrimidine-5-carboxamide]
[1]
  IC50: < 100 nM
PI3Kα (p110α/p85α)
  IC50: 100 to 1000 nM
other
  melting point: 222 to 225 °C

## CN(Cc1cc2nc(-c3cccc4[nH]ncc34)nc(Nc3ccccc3)c2s1)c1ncc(C(=O)NO)cn1 [Compound 164, 2-(((2-(1H-indazol-4-yl)-4-(phenylamino)thieno[3,2-d]pyrimidin-6-yl)methyl)(methyl)amino)-N-hydroxypyrimidine-5-carboxamide]
[1]
  IC50: < 100 nM
PI3Kα (p110α/p85α)
  IC50: < 100 nM
other
  melting point: 232 to 235 °C

## CN(Cc1cc2nc(-c3cccc4[nH]ncc34)nc(Nc3ccccn3)c2s1)c1ncc(C(=O)NO)cn1 [Compound 168, 2-(((2-(1H-indazol-4-yl)-4-(pyridin-2-ylamino)thieno[3,2-d]pyrimidin-6-yl)methyl)(methyl)amino)-N-hydroxypyrimidine-5-carboxamide]
[1]
  IC50: < 100 nM
PI3Kα (p110α/p85α)
  IC50: 1000 to 10000 nM
other
  melting point: 200 to 203 °C

## CN(Cc1cc2nc(-c3cccc4[nH]ccc34)nc(N3CCOCC3)c2s1)c1ncc(C(=O)NO)cn1 [Compound 176, 2-(((2-(1H-indol-4-yl)-4-morpholinothieno[3,2-d]pyrimidin-6-yl)methyl)(methyl)amino)-N-hydroxypyrimidine-5-carboxamide]
[1]
  IC50: < 100 nM
PI3Kα (p110α/p85α)
  IC50: 100 to 1000 nM
other
  melting point: 200 to 212 °C

## CN(Cc1cc2nc(-c3cccc4c3CCN4)nc(N3CCOCC3)c2s1)c1ncc(C(=O)NO)cn1 [Compound 177, N-hydroxy-2-(((2-(indolin-4-yl)-4-morpholinothieno[3,2-d]pyrimidin-6-yl)methyl)(methyl)amino)pyrimidine-5-carboxamide]
[1]
  IC50: < 100 nM
PI3Kα (p110α/p85α)
  IC50: > 10000 nM
other
  melting point: 146 to 156 °C

## CN(Cc1cc2nc(-c3ccc4c(c3)NCCO4)nc(N3CCOCC3)c2s1)c1ncc(C(=O)NO)cn1 [Compound 182, 2-(((2-(3,4-dihydro-2H-benzo[b][1,4]oxazin-6-yl)-4-morpholinothieno[3,2-d]pyrimidin-6-yl)methyl)(methyl)amino)-N-hydroxypyrimidine-5-carboxamide]
[1]
  IC50: < 100 nM
PI3Kα (p110α/p85α)
  IC50: 1000 to 10000 nM
other
  melting point: 170 to 183 °C

## CN(Cc1cc2nc(-c3ccc4[nH]c(=O)[nH]c4c3)nc(N3CCOCC3)c2s1)c1ncc(C(=O)NO)cn1 [Compound 186, N-hydroxy-2-(methyl((4-morpholino-2-(2-oxo-2,3-dihydro-1H-benzo[d]imidazol-5-yl)thieno[3,2-d]pyrimidin-6-yl)methyl)amino)pyrimidine-5-carboxamide]
[1]
  IC50: < 100 nM
PI3Kα (p110α/p85α)
  IC50: > 10000 nM
other
  melting point: 272 to 275 °C

## CN(Cc1cc2nc(-c3ccc4c(c3)CC(=O)N4)nc(N3CCOCC3)c2s1)c1ncc(C(=O)NO)cn1 [Compound 194, N-hydroxy-2-(methyl((4-morpholino-2-(2-oxoindolin-5-yl)thieno[3,2-d]pyrimidin-6-yl)methyl)amino)pyrimidine-5-carboxamide]
[1]
  IC50: < 100 nM
PI3Kα (p110α/p85α)
  IC50: > 10000 nM
other
  melting point: 270 °C (dec.)

## CN(Cc1cc2nc(-c3cn[nH]c3)nc(N3CCOCC3)c2s1)c1ncc(C(=O)NO)cn1 [Compound 196, N-hydroxy-2-(methyl((4-morpholino-2-(1H-pyrazol-4-yl)thieno[3,2-d]pyrimidin-6-yl)methyl)amino)pyrimidine-5-carboxamide]
[1]
  IC50: < 100 nM
PI3Kα (p110α/p85α)
  IC50: 100 to 1000 nM
other
  melting point: 214 to 217 °C

## CN(Cc1cc2nc(-c3cc[nH]c3)nc(N3CCOCC3)c2s1)c1ncc(C(=O)NO)cn1 [Compound 197, N-hydroxy-2-(methyl((4-morpholino-2-(1H-pyrrol-3-yl)thieno[3,2-d]pyrimidin-6-yl)methyl)amino)pyrimidine-5-carboxamide]
[1]
  IC50: < 100 nM
PI3Kα (p110α/p85α)
  IC50: < 100 nM
other
  melting point: 175 to 189 °C

## CN(Cc1cc2nc(-c3ccc(F)cc3)nc(N3CCOCC3)c2s1)c1ncc(C(=O)NO)cn1 [Compound 200, 2-(((2-(4-fluorophenyl)-4-morpholinothieno[3,2-d]pyrimidin-6-yl)methyl)(methyl)amino)-N-hydroxypyrimidine-5-carboxamide]
[1]
  IC50: < 100 nM
PI3Kα (p110α/p85α)
  IC50: > 10000 nM
other
  melting point: 168 to 170 °C

## Cc1ccc(-c2nc(N3CCOCC3)c3sc(CN(C)c4ncc(C(=O)NO)cn4)cc3n2)cc1 [Compound 201, N-hydroxy-2-(methyl((4-morpholino-2-p-tolylthieno[3,2-d]pyrimidin-6-yl)methyl)amino)pyrimidine-5-carboxamide]
[1]
  IC50: < 100 nM
PI3Kα (p110α/p85α)
  IC50: 100 to 1000 nM
other
  melting point: 170 to 172 °C

## CN(Cc1cc2nc(-c3ccc(C(F)(F)F)cc3)nc(N3CCOCC3)c2s1)c1ncc(C(=O)NO)cn1 [Compound 202, N-hydroxy-2-(methyl((4-morpholino-2-(4-(trifluoromethyl)phenyl)thieno[3,2-d]pyrimidin-6-yl)methyl)amino)pyrimidine-5-carboxamide]
[1]
  IC50: < 100 nM
PI3Kα (p110α/p85α)
  IC50: 100 to 1000 nM
other
  melting point: 222 to 223 °C

## Nc1ccc(-c2nc(N3CCOCC3)c3sc(CNc4ncc(C(=O)NO)cn4)cc3n2)cc1 [Compound 211, 2-((2-(4-aminophenyl)-4-morpholinothieno[3,2-d]pyrimidin-6-yl)methylamino)-N-hydroxypyrimidine-5-carboxamide]
[1]
  IC50: < 100 nM
PI3Kα (p110α/p85α)
  IC50: 100 to 1000 nM
other
  melting point: 217 to 223 °C

## Nc1ncc(-c2nc(N3CCOCC3)c3sc(NS(=O)(=O)c4ccc(/C=C/C(=O)NO)cc4)cc3n2)cn1 [Compound 217, (E)-3-(4-(N-(2-(2-aminopyrimidin-5-yl)-4-morpholinothieno[3,2-d]pyrimidin-6-yl)sulfamoyl)phenyl)-N-hydroxyacrylamide]
[1]
  IC50: < 100 nM
PI3Kα (p110α/p85α)
  IC50: < 100 nM
other
  melting point: > 300 °C

## Nc1ncc(-c2nc(N3CCOCC3)c3sc(NS(=O)(=O)c4cccc(/C=C/C(=O)NO)c4)cc3n2)cn1 [Compound 218, (E)-3-(3-(N-(2-(2-aminopyrimidin-5-yl)-4-morpholinothieno[3,2-d]pyrimidin-6-yl)sulfamoyl)phenyl)-N-hydroxyacrylamide]
[1]
  IC50: < 100 nM
PI3Kα (p110α/p85α)
  IC50: < 100 nM
other
  melting point: > 300 °C

## COc1ccc(-c2nc(N3CCOCC3)c3sc(NS(=O)(=O)c4cccc(/C=C/C(=O)NO)c4)cc3n2)cn1 [Compound 221, (E)-N-hydroxy-3-(3-(N-(2-(6-methoxypyridin-3-yl)-4-morpholinothieno[3,2-d]pyrimidin-6-yl)sulfamoyl)phenyl)acrylamide]
[1]
  IC50: < 100 nM
PI3Kα (p110α/p85α)
  IC50: < 100 nM
other
  melting point: > 300 °C

## COc1ccc(-c2nc(N3CCOCC3)c3sc(NS(=O)(=O)c4ccc(/C=C/C(=O)NO)cc4)cc3n2)cn1 [Compound 222, N-Hydroxy-3-{4-[2-(6-methoxy-pyridin-3-yl)-4-morpholin-4-yl-thieno[3,2-d]pyrimidin-6-ylsulfamoyl]-phenyl}-acrylamide]
[1]
  IC50: < 100 nM
PI3Kα (p110α/p85α)
  IC50: 100 to 1000 nM
other
  melting point: > 300 °C

## Nc1ncc(-c2nc(N3CCOCC3)c3sc(NCCCC(=O)NO)cc3n2)cn1 [Compound 225, 4-(2-(2-aminopyrimidin-5-yl)-4-morpholinothieno[3,2-d]pyrimidin-6-ylamino)-N-hydroxybutanamide]
[1]
  IC50: 1000 to 10000 nM
PI3Kα (p110α/p85α)
  IC50: < 100 nM
other
  melting point: 220 to 230 °C
